These results are taken from US8716326B2, “Isoindolinone derivatives, preparation method thereof and a pharmaceutical composition comprising same” (Korea Research Institute of Chemical Technology, priority 2009, dated 2014).

In the assay the test system is Runx2. In words: Runx2 activity, 6xOSE2-Luc luciferase reporter in transfected C2C12 cells. The assay is classed as cell-based, Mouse. Particulars: 24 hrs; for fold induction at 2.5 µM / fold induction at 5 µM / fold induction at 10 µM / fold induction at 20 µM: Mus musculus, read-out: luciferase activity relative to control set as 1. The method, then:
Mouse premyoblast cell (C2C12 cell) was transfected using receptor vector 6xOSE2-Luc in order to investigate the activity of the amide compound of the present invention on Runx2.
Specifically, the receptor vector 6xOSE2-Luc was prepared by inserting an artificial promoter linked by six tandem copies of the OSE2 (osteoblast specific element-2) into vector pGL3 (Promega; Madison, Wis., U.S.A.), and then, cloned into the C2C12 cell to be transfected (Kim et al., Journal of Cellular Biochemistry, 91: 1239-1247, 2004). The OSE2 is the binding site of Runx2 in the promoter of osteocalcin which is a bone marker.
C2C12 cells (5,000 cells/well) were plated onto 96-well plates using 10% FBS (fetal bovine serum; Hyclone)-containing DMEM (Dulbecco's Modified Eagle's Medium), the medium was replaced with 5% FBS-containing DMEM after 24 hrs, and treated with each of the amide compounds obtained in Examples 1 to 94 at various concentrations of 2.5 μM, 5.0 μM, 10 μM, and 20 μM. As a control, dimethyl sulfoxide (DMSO) vehicle was applied to the cell in an amount same as that of the amide compound. After 24 hrs, the luciferase activity in the cell lysate was measured by using Dual-Luciferase Reporter Assay System (Promega). The luciferase activity of the amide compound of the present invention was calculated as a value relative to that observed for the control which was set as 1.
On the technique in general: A reporter such as luciferase makes a cellular process visible.

In the case of `COc1cc2c(c(-c3ccccc3)c1OC)CN(Cc1ccc(C(=O)Nc3ccccc3N)cc1)C2=O` [Example 2, N-(2-aminophenyl)-4-((5,6-dimethoxy-1-oxo-4-phenylisoindolin-2-yl)methyl)benzamide], under “2.5 μM”, the fold induction at 2.5 µM was 27.3. Moreover, the fold induction at 5 µM (5.0 μM) was 24.8. Besides, for the setting “10 μM”, the fold induction at 10 µM worked out at 19.7. In addition, for the setting “20 μM”, the fold induction at 20 µM was found to be 21.7.
In the case of `Cc1cc(C)cc(-c2ccc3c(c2)CN(Cc2ccc(C(=O)Nc4ccccc4N)cc2)C3=O)c1` [Example 62, N-(2-aminophenyl)-4-((5-(3,5-dimethylphenyl)-1-oxoisoindolin-2-yl)methyl)benzamide], under “2.5 μM”, the fold induction at 2.5 µM was 4.6. The fold induction at 5 µM (5.0 μM) worked out at 5.8. Besides, for the setting “10 μM”, the fold induction at 10 µM was determined as 5.5. Moreover, the fold induction at 20 µM (20 μM) amounted to 6.6.
The like results for `Cc1cc(C(=O)NCCCCCC(=O)Nc2ccccc2N)ccc1-c1cncnc1` [Example 90, N-(5-(2-aminophenylcarbamoyl)pentyl)-3-methyl-4-(5-pyrimidinyl)-benzamide] were, in that order, 1.7, 3.7, 9.5 and 22.1.
For `Cc1c(C(=O)NCCCCCC(=O)Nc2ccccc2N)cccc1-c1cccnc1` [Example 83, N-(5-(2-aminophenylcarbamoyl)pentyl)-2-methyl-3-(3-pyridinyl)-benzamide] the same measures were 1.3, 2.1, 5.6 and 15.7.
For `Nc1ccccc1NC(=O)c1ccc(CN2Cc3c(cccc3-c3cc(F)cc(F)c3)C2=O)cc1` [Example 17, N-(2-aminophenyl)-4-((4-(3,5-difluorophenyl)-1-oxoisoindolin-2-yl)methyl)benzamide] the same measures were 11.2, 14.7, 16.3 and 15.8.
Take `Cc1c(Br)cccc1C(=O)NCCCCCC(=O)Nc1ccccc1N` [Example 80, N-(5-(2-aminophenylcarbamoyl)pentyl)-3-bromo-2-methylbenzamide]: the fold induction at 2.5 µM (2.5 μM) turned out to be 0.9. Moreover, for the setting “5.0 μM”, the fold induction at 5 µM was 1.8. Moreover, the fold induction at 10 µM (10 μM) turned out to be 2.7. In addition, the fold induction at 20 µM (20 μM) is 5.4.
Consider `Nc1cccc(-c2cccc3c2CN(Cc2ccc(C(=O)Nc4ccccc4N)cc2)C3=O)c1` [Example 18, N-(2-aminophenyl)-4-((4-(3-aminophenyl)-1-oxoisoindolin-2-yl)methyl)benzamide], for which, for the setting “2.5 μM”, the fold induction at 2.5 µM came out at 15.3. Under “5.0 μM”, the fold induction at 5 µM amounted to 16.2. Also, the fold induction at 10 µM (10 μM) came out at 20.2. Further, the fold induction at 20 µM (20 μM) turned out to be 18.5.
As for `COc1cc2c(c(-c3cc(C)cc(C)c3)c1OC)CN(Cc1ccc(C(=O)Nc3ccccc3N)cc1)C2=O` [Example 3, N-(2-aminophenyl)-4-((5,6-dimethoxy-4-(3,5-dimethylphenyl)-1-oxoisoindolon-2-yl)methyl)benzamide], the “luciferase activity relative to control set as 1” value (2.5 μM) amounted to 25.2 fold, the “luciferase activity relative to control set as 1” value (5.0 μM) is reported as 25.7 fold, the “luciferase activity relative to control set as 1” value (10 μM) came out at 22.7 fold and the “luciferase activity relative to control set as 1” value (20 μM) came out at 18.7 fold.
Regarding `COc1ccc(-c2cccc(C(=O)NCCCCCC(=O)Nc3ccccc3N)c2C)c(OC)c1` [Example 82, N-(5-(2-aminophenylcarbamoyl)pentyl)-2-methyl-3-(2,4-dimethoxyphenyl)-benzamide], the fold induction at 2.5 µM (2.5 μM) came out at 1.5. Further, the fold induction at 5 µM (5.0 μM) came to 2.5. For the setting “10 μM”, the fold induction at 10 µM came to 6. Moreover, the fold induction at 20 µM (20 μM) turned out to be 10.9.
For `Nc1ccccc1NC(=O)CCCCCN1Cc2c(cccc2-c2cccnc2)C1=O` [Example 38, N-(2-aminophenyl)-6-(1-oxo-4-(pyridin-3-yl)isoindolin-2-yl)hexanamide] the same measures were 3, 8.2, 23 and 43.3.
The like results for `Nc1ccc(-c2cccs2)cc1NC(=O)CCCCCN1Cc2c(cccc2-c2cncnc2)C1=O` [Example 47, N-(2-amino-5-(thiophen-2-yl)phenyl)-6-(1-oxo-4-(pyrimidin-5-yl)isoindolin-2-yl)hexanamide] were, in that order, 1.1, 1.2, 1.3 and 1.6.
On to `COc1ccc(-c2c3c(cc(OC)c2OC)C(=O)N(Cc2ccc(C(=O)Nc4ccccc4N)cc2)C3)cc1OC` [Example 7, N-(2-aminophenyl)-4-((5,6-dimethoxy-4-(3,4-dimethoxyphenyl)-1-oxoisoindolin-2-yl)methyl)benzamide], for which the fold induction at 2.5 µM (2.5 μM) came to 24.6. Moreover, where the note is “5.0 μM”, the fold induction at 5 µM was 26.9. For the same compound, the fold induction at 10 µM (10 μM) was determined as 24.3. In addition, where the note is “20 μM”, the fold induction at 20 µM turned out to be 18.4.
For `Nc1ccccc1NC(=O)c1ccc(CN2Cc3cc(Br)ccc3C2=O)cc1` [Example 56, N-(2-aminophenyl)-4-((5-bromo-1-oxoisoindolin-2-yl)methyl)benzamide] the same measures were 1.1, 1.1, 1.1 and 1.1.
The like results for `Cc1cc(C)cc(-c2cccc3c2CN(Cc2ccc(C(=O)Nc4ccccc4N)cc2)C3=O)c1` [Example 12, N-(2-aminophenyl)-4-((4-(3,5-dimethylphenyl)-1-oxoisoindolin-2-yl)methyl)benzamide] were, in that order, 5.5, 9, 12.2 and 10.4.
For `COc1ccc(-c2cccc(C(=O)NCCCCCC(=O)NO)c2C)c(OC)c1` [Example 93, N-(5-(hydroxycarbamoyl)pentyl)-2-methyl-3-(2,4-dimethoxyphenyl)-benzamide] the same measures were 1.3, 1.9, 4.8 and 11.2.
Turning to `O=C(CCCCCN1Cc2c(cccc2-c2cc(F)cc(F)c2)C1=O)NO` [Example 42, 6-(4-(3,5-difluorophenyl)-1-oxoisoindolin-2-yl)-N-hydroxyhexanamide], the fold induction at 2.5 µM (2.5 μM) was 3.1. In addition, where the note is “5.0 μM”, the fold induction at 5 µM was determined as 10.8. Further, the fold induction at 10 µM (10 μM) came out at 22.3. The fold induction at 20 µM (20 μM) worked out at 17.9.
For `COc1cc(C(=O)NCc2ccc(C(=O)Nc3ccccc3N)cc2)c(C)c(-c2cc(F)cc(F)c2)c1OC` [Example 79, N-(2-aminophenyl)-4-((2-methyl-3-(3,5-difluorophenyl)-4,5-dimethoxy-benzamido)methyl)benzamide] the same measures were 13.5, 24.4, 31.3 and 31.7.
Consider `Cc1cc(C(=O)NCCCCCC(=O)Nc2ccccc2N)ccc1-c1ccncc1` [Example 89, N-(5-(2-aminophenylcarbamoyl)pentyl)-3-methyl-4-(4-pyridinyl)-benzamide], for which the fold induction at 2.5 µM (2.5 μM) came out at 9.6. Besides, for the setting “5.0 μM”, the fold induction at 5 µM was determined as 17.9. Moreover, for the setting “10 μM”, the fold induction at 10 µM came to 23.7. Moreover, for the setting “20 μM”, the fold induction at 20 µM stood at 25.3.
